Results as given in PMC8304660, “Identification of Erythromycin and Clarithromycin Metabolites Formed in Chicken Liver Microsomes Using Liquid Chromatography–High-Resolution Mass Spectrometry” (Foods, 2021).
Values joined by “and” are separate entries in the source; they are usually repeats but may differ in a detail not shown here. Equal values may be shown once.

What was measured:
[1] = In vitro incubation in chicken liver microsomes with or without NADPH, LC/ESI-HR-MS analysis; type: in vitro ADME; conditions: for Remaining Content −Cofactor, Mean ± SD (%) / Remaining Content (%) −Cofactor, 1 / Remaining Content (%) −Cofactor, 2 / Remaining Content (%) −Cofactor, 3 / Remaining Content +Cofactor, Mean ± SD (%) / Remaining Content (%) +Cofactor, 1 / Remaining Content (%) +Cofactor, 2 / Remaining Content (%) +Cofactor, 3: chicken liver microsomes (CLM), 60 min vs 0 min incubation; for Remaining Content −Cofactor, Mean ± SD (%) / Remaining Content (%) −Cofactor, 1 / Remaining Content (%) −Cofactor, 2 / Remaining Content (%) −Cofactor, 3: no NADPH (control); for Remaining Content −Cofactor, Mean ± SD (%) / Remaining Content +Cofactor, Mean ± SD (%): mean of 3; for Remaining Content (%) −Cofactor, 1 / Remaining Content (%) +Cofactor, 1: replicate 1; for Remaining Content (%) −Cofactor, 2 / Remaining Content (%) +Cofactor, 2: replicate 2; for Remaining Content (%) −Cofactor, 3 / Remaining Content (%) +Cofactor, 3: replicate 3; for Remaining Content +Cofactor, Mean ± SD (%) / Remaining Content (%) +Cofactor, 1 / Remaining Content (%) +Cofactor, 2 / Remaining Content (%) +Cofactor, 3: with NADPH cofactor; for Remaining Content (%) +Cofactor, 2: tested at 1 µM; for Remaining Content (%) +Cofactor, 3: tested at 1 µM; for Remaining Content (%) −Cofactor, 2: tested at 1 µM; for Remaining Content (%) −Cofactor, 3: tested at 1 µM; for Remaining Content +Cofactor, Mean ± SD (%): tested at 1 µM; for Remaining Content −Cofactor, Mean ± SD (%): tested at 1 µM
Procedure: The incubation system (100 μL) contained 65 μL of potassium phosphate buffer (0.1 M, pH 7.4), 20 μL of chicken liver microsomes (5 mg/mL), 5 μL of a compound (20 μM) and […]. After a 5 min preincubation period at 37 °C, the reaction was started by introducing 10 μL of NADPH (10 mM) as the cofactor solution. The final study groups were divided into cofactor and no cofactor (control) groups. After preincubation for 5 min, 10 μL of potassium phosphate buffer (0.1 M, pH 7.4) was added to the control group. […] For 0 min samples, the reaction was quenched immediately after the 5-min preincubation, followed by the addition of 10 μL of NADPH (10 mM) and 10 μL of potassium phosphate buffer (0.1 M, pH 7.4) to the cofactor and control groups, respectively. Following brief sonication (5 min) and vortexing (5 min), the mixtures were centrifuged for 30 min at 3000 rpm and 4 °C. The supernatant was transferred to an Agilent 96-well plate and then analysed on an Agilent 6530 Q-TOF LC-MS/MS instrument.
Liquid chromatographic separation and mass spectrometric detection were performed on an Agilent 1200 series HPLC system and an Agilent 6530 Q-TOF LC-MS/MS system equipped with a dual AJS ESI ion source. Chromatographic separation was performed on an Agilent Eclipse Plus C18 column (100 mm × 2.1 mm; i.d. 3.5 µm) by gradient elution with a mobile phase consisting of 0.1 vol.% formic acid in water (A) and ACN (B) at 40 °C: 0–2 min, 5 vol.% B; 2–3 min, 50 vol.% B; 3–4 min, 75 vol.% B; and 4-5 min, 5 vol.% B. The injection volume was 5 μL with a flow rate of 0.4 mL/min. Before sample injection, the instrument was equilibrated under the initial gradient conditions (A:B = 95:5, v/v) and the above-mentioned column temperature and flow rate conditions. HR-MS detection was carried out in positive ionization mode with the following ion source parameters: capillary voltage, 4000 V; drying gas, 12 L/min and 325 °C; nebulizer gas, 35 psi; and sheath gas, 10 L/min and 350 °C. Mass spectra were acquired in positive ion auto MS/MS mode (F, 100 V; CE, 0 eV) with a full scan range of m/z (100–1000) and a mass scan rate of 5 spectra/s. The mass spectrometer was run in an extended dynamic range mode with a mass range of m/z 50–3200. The mass resolving power was greater than 12,000 FWHM at m/z 1552.
The data were analysed using Agilent MassHunter Quantitative Analysis software (version B.05.00) and Agilent MassHunter Metabolite ID software (version B.04.00) (Santa Clara, CA, USA). The remaining content was evaluated by dividing the ratio of the response of the target compound to the response of the IS at 60 min of incubation by the ratio of the response of the target compound to the response of the IS at 0 min of incubation in the cofactor group or control group.

CYP3A4 = test system: CYP3A4; design: method as in PMID 1732074, PMID 1976065; conditions: midazolam as the CYP3A4 substrate; cited from earlier work
P-GP = test system: P-GP; design: method as in PMID 1732074, PMID 1976065; conditions: cited from earlier work

CC[C@H]1OC(=O)[C@H](C)[C@@H](O[C@H]2C[C@@](C)(OC)[C@@H](O)[C@H](C)O2)[C@H](C)[C@@H](O[C@@H]2O[C@H](C)C[C@H](N(C)C)[C@H]2O)[C@](C)(OC)C[C@@H](C)C(=O)[C@H](C)[C@@H](O)[C@]1(C)O [CLA, clarithromycin]
Remaining Content −Cofactor, Mean ± SD (%) [1]: 86.6 ± 12.3% | Remaining Content (%) −Cofactor, 1 [1]: 100.7% | Remaining Content (%) −Cofactor, 2 [1]: 78.7% | Remaining Content (%) −Cofactor, 3 [1]: 80.3% | Remaining Content +Cofactor, Mean ± SD (%) [1]: 89.8% and 89.8 ± 21.5% | Remaining Content (%) +Cofactor, 1 [1]: 77.5% | Remaining Content (%) +Cofactor, 2 [1]: 77.3% | Remaining Content (%) +Cofactor, 3 [1]: 114.7% | Formation of N-desmethyl metabolite ([1]; chicken liver microsomes, incubation for 60 min with NADPH cofactor, extracted ion chromatograms): cannot produce N-desmethyl-clarithromycin | Strength of drug interaction (CYP3A4): strong | Inhibition of the activity of the drug transporter P-GP (P-GP): do not inhibit

CC[C@H]1OC(=O)[C@H](C)[C@@H](O[C@H]2C[C@@](C)(OC)[C@@H](O)[C@H](C)O2)[C@H](C)[C@@H](O[C@@H]2O[C@H](C)C[C@H](N(C)C)[C@H]2O)[C@](C)(O)C[C@@H](C)C(=O)[C@H](C)[C@@H](O)[C@]1(C)O [ERY, erythromycin A]
Remaining Content −Cofactor, Mean ± SD (%) [1]: 94.8 ± 6.3% | Remaining Content (%) −Cofactor, 1 [1]: 99.0% | Remaining Content (%) −Cofactor, 2 [1]: 97.9% | Remaining Content (%) −Cofactor, 3 [1]: 87.6% | Remaining Content +Cofactor, Mean ± SD (%) [1]: 86.6% and 86.6 ± 6.5% | Remaining Content (%) +Cofactor, 1 [1]: 82.6% | Remaining Content (%) +Cofactor, 2 [1]: 83.1% | Remaining Content (%) +Cofactor, 3 [1]: 94.1%

O=C1CC2(CCCC2)CC(=O)N1CCCCN1CCN(c2ncccn2)CC1 [BUS, buspirone]
Remaining Content −Cofactor, Mean ± SD (%) [1]: 81.5 ± 13.8% | Remaining Content (%) −Cofactor, 1 [1]: 87.5% | Remaining Content (%) −Cofactor, 2 [1]: 65.7% | Remaining Content (%) −Cofactor, 3 [1]: 91.2% | Remaining Content +Cofactor, Mean ± SD (%) [1]: 48.9% and 48.9 ± 4.5% | Remaining Content (%) +Cofactor, 1 [1]: 46.4% | Remaining Content (%) +Cofactor, 2 [1]: 46.2% | Remaining Content (%) +Cofactor, 3 [1]: 54.1%
